According to publication PMC9180926, “Discovery of Novel 3-Hydroxyquinazoline-2,4(1H,3H)-Dione Derivatives: A Series of Metal Ion Chelators with Potent Anti-HCV Activities” (International Journal of Molecular Sciences, 2022):

How the values were obtained:
[1] = test system: HCV 1b replicon cells (Huh-7.5.1); assay: Anti-HCV assay, HCV 1b replicon cells with luciferase reporter; format: cell-based, hepatitis C virus (HCV) subtype 1b; conditions: Hepatitis C virus, HCV 1b replicon cells
[2] = Cytotoxicity assay (CCK-8) on replicon cells; format: cell-based; conditions: human, HCV 1b replicon cells (Huh-7.5.1); 50% cytotoxic concentration; CCK-8, HCV 1b replicon cells, 72 h

Compound `O=c1[nH]c2cc(-c3ccccc3)ccc2c(=O)n1O` [21e, 3-Hydroxy-7-phenylquinazoline-2,4(1H,3H)-dione] has an EC50 ([1]; Huh-7.5.1, 50% effective concentration, mean ± SD) of 3.2 ± 0.04 µM, an inhibition at 10 µM ([1]; Huh-7.5.1, 72 h, inhibitory rate at 10 μM, 72 h, read-out: HCV Inhibition 10 μM) of 78.1% and a CC50 at 72 h [2] of 5.4 ± 0.6 µM.
